This is an account of results in patent US12478626B2, “Kinase mutants and uses thereof” (SIB Swiss Institute of Bioinformatics, priority 2017, dated 2025).

The target of one assay is T1, wild type Zap-70 (Homo sapiens, UniProt P43403).
T1 sequence (P43403 1-619): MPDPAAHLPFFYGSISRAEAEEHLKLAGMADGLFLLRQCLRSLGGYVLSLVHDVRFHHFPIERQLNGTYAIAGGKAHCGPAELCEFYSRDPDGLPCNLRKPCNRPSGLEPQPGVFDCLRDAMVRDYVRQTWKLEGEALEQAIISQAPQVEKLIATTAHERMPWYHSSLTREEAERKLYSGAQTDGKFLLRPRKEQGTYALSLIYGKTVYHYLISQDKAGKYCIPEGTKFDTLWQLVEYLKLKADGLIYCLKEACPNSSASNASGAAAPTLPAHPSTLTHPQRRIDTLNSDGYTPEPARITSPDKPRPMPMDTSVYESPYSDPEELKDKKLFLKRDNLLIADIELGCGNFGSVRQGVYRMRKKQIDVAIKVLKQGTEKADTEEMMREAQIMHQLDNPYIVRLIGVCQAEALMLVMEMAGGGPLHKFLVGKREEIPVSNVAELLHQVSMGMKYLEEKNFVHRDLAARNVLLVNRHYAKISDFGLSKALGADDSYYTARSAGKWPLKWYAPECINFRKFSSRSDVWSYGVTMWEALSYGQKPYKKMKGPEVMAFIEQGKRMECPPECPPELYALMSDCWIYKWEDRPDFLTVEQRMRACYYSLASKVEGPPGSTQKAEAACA
Test: not given
To be noted: Karaman et al.; cited from earlier work.
Take `CS(=O)(=O)CCNCc1ccc(-c2ccc3ncnc(Nc4ccc(OCc5cccc(F)c5)c(Cl)c4)c3c2)o1` [Lapatinib]: the “inhibitory effect on the wild type Zap-70” value is reported as “no or little inhibitory effect”.

Another assay relates to Zap-70 mutants in P116 cells. Description: Inhibition of IL-2 production by TKI at two concentrations, Zap-70 mutants versus WT. To be noted: 500 nM and 1 or […], 24 h and 48 h.
With `C=CC(=O)Nc1cccc(Nc2nc(Nc3ccc(N4CCN(C(C)=O)CC4)cc3OC)ncc2C(F)(F)F)c1` [CO-1686], the “inhibition in production of IL-2 in mutants compared to Zap-70 WT” value is on record as “No significantly different inhibition”.
On the same count and under the same terms, as for `C#Cc1cccc(Nc2ncnc3cc(OCCOC)c(OCCOC)cc23)c1` [Erlotinib], the entry is “higher in mutants than WT”; as for `CS(=O)(=O)CCNCc1ccc(-c2ccc3ncnc(Nc4ccc(OCc5cccc(F)c5)c(Cl)c4)c3c2)o1` [Lapatinib], “increase of cell response”; as for `CCOc1cc2ncc(C#N)c(Nc3ccc(OCc4ccccn4)c(Cl)c3)c2cc1NC(=O)/C=C/CN(C)C` [Neratinib], “No significantly different inhibition”.
The same measure, in the same setting: as for Crizotinib, the entry is “increase of cell response”.
